Experimental data taken from ChEMBL document CHEMBL1128237, “6-(4-pyridinyl)-1H-1,2,3-triazolo[4,5-d]-pyrimidin-4(5H)-one: a structurally novel competitive AMPA receptor antagonist” (J Med Chem, 1995).
Each block holds one compound with its values, some of them ahead of it.

How the values were obtained:
[1] = molecular target: T1, Glutamate receptor ionotropic AMPA (Homo sapiens, UniProt P42261+P42262+P42263+P48058); assay: (§1) Inhibition of Ionotropic glutamate receptor AMPA binding to human hippocampal homogenates at concentration of 5-7 uM; format: tissue-based, Hippocampus
[2] = molecular target: Glutamate receptor ionotropic AMPA (Homo sapiens) (UniProt P48058+P42263+P42262+P42261); assay: as §1; format: tissue-based; settings: Hippocampus
[3] = Ability to antagonize kainate-induced responses in frog oocyte; format: functional
[4] = Inhibition of [3H]-kainic acid binding to kainate receptor at a concentration of 10 uM
[5] = Ability to antagonize AMPA-induced responses in frog oocytes; format: functional, cell-based; settings: oocyte
[6] = Inhibition of [3H]-CGS 19755 binding to NMDA receptor at a concentration of 10 uM
[7] = molecular target: T1, Glutamate receptor ionotropic AMPA; assay: Inhibition of Ionotropic glutamate receptor AMPA binding to human hippocampal homogenates; format: tissue-based, Hippocampus

SMILES: O=c1[nH]c2cc([N+](=O)[O-])c([N+](=O)[O-])cc2[nH]c1=O [DNQX]
- IC50 [1]: 280 nM

SMILES: Nc1[nH]c(-c2ccncc2)nc2nnnc1-2
- inhibition [2]: < 5%

SMILES: Oc1[nH]c(-c2ccncc2)nc2nnnc1-2
- pA2 [3]: 6.2
- IC50 [1]: 1800 nM
- inhibition at 10 µM [4]: 37%
- pA2 [5]: 6.08
- inhibition at 10 µM [6]: 17%

SMILES: Cc1nc(O)c2c[nH]nc2n1
- inhibition [2]: < 5%

SMILES: Nc1[nH]c(-c2ccncc2)nc2ncnc1-2
- inhibition [2]: < 5%

More lines, main results first:

- inhibition [2]: < 5%
SMILES: Oc1nc(-c2ccncc2)nc2c(C3CCCC3)n[nH]c12

- IC50 [7]: 2100 nM
SMILES: Oc1nc(-c2ccncc2)nc2c1ncn2C1CCCC1
- inhibition at 10 µM [4]: 15%
- inhibition at 10 µM [6]: 25%

- inhibition [2]: < 5%
SMILES: O=c1[nH]c(-c2ccncc2)nc2c1cnn2C1CCCC1

- IC50 [7]: 1900 nM
SMILES: Oc1[nH]c(-c2ccncc2)nc2ncnc1-2
